Results reported in patent US5441947A, “Methods of inhibiting vascular restenosis” (Eli Lilly and Company, priority 1993, dated 1995).
Where “and” joins values, the source holds several entries; their conditions need not be identical. Equal values may be shown once.

System: smooth muscle cell chemotaxis
Assay: smooth muscle cell chemotaxis (96 well chemotaxis chamber, PDGF-BB as inducer)
Type: cell-based
Conditions: four hours; for Degree of Cell Migration: absorbance; for IC50: 4 h, PDGF-BB 10 ng/ml as inducer, 37° C., read-out: half maximal inhibiting concentrations (IC50) to inhibit smooth muscle cell chemotaxis
Description: Compounds of the invention were tested for impact on smooth muscle cell chemotaxis using a model AB96 Neuro Probe® 96 well chemotaxis chaser. […] This chamber is available from Neuro Probe, Inc., P.O. Box 400, Cabin John, Md.
The chamber consists of a top plate, a bottom plate, a gasket and a polyvinyl pyrrolidone-free polycarbonate filter. […] The 8 μm pore filter is soaked in 0.5N acetic acid overnight and coated with collagen at 100 μg/ml in 0.1N acetic acid for 2 days. The filter is then dried in a hood. The filter is then installed on the bottom plate, followed by the gasket. The top plate is then placed on the gasket, forming the top wells. In the top wells, smooth muscle cells are placed with the compounds to be tested at specified concentrations in around 225 μl volume. The smooth muscle cells are plated at a density of 0.5×10^6 cells/mi. The chamber is incubated at 37° C., 5% CO2 for four hours, and at the end of this time the upper well-cells are scraped off. The lower well cells are fixed, stained, and the absorbance is read.

[1] = 0.1 μm compound, PDGF-BB 10 ng/ml
[2] = 10 μm compound, PDGF-BB 10 ng/ml
[3] = 0.03 μM compound, PDGF-BB 10 ng/ml
[4] = 0.3 μm compound, PDGF-BB 10 ng/ml

Molecule | IC50 [nM] | Degree of Cell Migration [1] | also measured
COc1cc2c(c(OC)c1OC)-c1ccc(OC)c(=O)cc1[C@@H](NC(C)=O)CC2 [Colchicine, reference compound] | – | – | Degree of Cell Migration (1 μm compound, PDGF-BB 10 ng/ml): 0.000
COC[C@H]1OC(=O)c2coc3c2[C@@]1(C)C1=CC[C@]2(C)C(=O)CC[C@H]2C1C3=O (stereo partly drawn) [II, Δ9,11-dehydrodesacetoxywortmannin] | 200 | – | –
COCC1OC(=O)c2coc3c2C1(C)C1=C(C3=O)C2CCC(O)C2(C)CC1OC(C)=O (stereo not drawn) [IIIA, 17α-Dihydrowortmannin] | 20 | -0.010 | Degree of Cell Migration (0.01 μm compound, PDGF-BB 10 ng/ml): 0.033
Cc1c2c(c(O)c3occ(C(=O)O)c13)[C@@H]1CCC(=O)[C@@]1(C)C=C2 [IVa, opened A-ring acid of wortmannin] | > 10000 | – | Degree of Cell Migration [2]: 0.04
COC(=O)c1coc2c(O)c3c(c(C)c12)C=C[C@]1(C)C(=O)CC[C@@H]31 [IVb, opened A-ring methyl ester of wortmannin] | 10000 | – | Degree of Cell Migration [2]: 0.026
COCC1OC(=O)c2coc3c2C1(C)C1=C(C3=O)C2CCC(=O)C2(C)CC1OC(C)=O (stereo not drawn) [Ia, wortmannin] | 30 | 0.006 | Degree of Cell Migration [3]: 0.020; Degree of Cell Migration [4]: -0.001
COC[C@H]1OC(=O)c2coc3c2[C@@]1(C)C1=C(C3=O)[C@@H]2CCC(=O)[C@@]2(C)CC1 [Ib, 11-desacetoxywortmannin] | 200 | 0.040 and 0.028 | Degree of Cell Migration [3]: 0.044 and 0.036; Degree of Cell Migration [4]: 0.015
PDGF: PDGF-BB at 10 ng/ml as an inducer, or chemoattractant (protein, UniProt P01127 82-190, looked up) Platelet-derived growth …: SLGSLTIAEPAMIAECKTRTEVFEISRRLIDRTNANFLVWPPCVEVQRCSGCCNNRNVQCRPTQVQLRPVQVRKIEIVRKKPIFKKATVTLEDHLACKCETVAAARPVT | – | – | Degree of Cell Migration (PDGF 10 ng/ml alone (inducer control)): 0.046
